Where “and” joins values, the source holds several entries; their conditions need not be identical. Equal values may be shown once.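 Five compound concentrations were applied to cells in 96-well plates for 48 hours; endpoints were derived by simple linear interpolation of the resulting dose-response curve. GI50 = concentration required for 50% inhibition of growth. At the TGI there is no net growth.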 Some results are limits rather than exact numbers.

The subject of the first assay is TK-10 renal. Nature of the assay: DTP human tumour cell line panel, 48 h.
One may read the TGI as the concentration giving total growth inhibition. Low readings indicate more potent growth arrest, high ones less potent growth arrest. As to `NC(=O)N/N=C(\Cc1nc2ccc(Cl)cc2[nH]c1=O)C(=O)Nc1ccc(Cl)cc1Cl`, the TGI was greater than 100 µM.
As for `OCCCCCNc1c2ccccc2nc2ccccc12`, the TGI was determined as 20.3 µM.
A word on the GI50: it is the concentration that inhibits growth by half. Turning to `CC(=O)OCC1OC(OC(C)(C)CC/C=C(\C)[C@@H]2C/C=C(\C)CC/C=C(\C)CC2)C(O)C(O)C1OC(C)=O` (stereo partly drawn), the GI50 was > 100 µM and 20.6 µM; the TGI is > 100 µM and 38.3 µM.
In turn, `O=C(/C=C/c1ccc(O)c([N+](=O)[O-])c1)CC(=O)/C=C/c1ccc(O)c([N+](=O)[O-])c1` came in with a TGI greater than 100 µM.
On the same count and under the same terms, then `OCC1CCCCCCCCCCC12SCCCS2` (stereo not drawn), with greater than 100 µM; and `CC(C)=CCOC(=O)C(C)=[N+]=[N-]`, with greater than 100 µM; and `Cn1cc2ccccc2c1-c1nc(N)nc(F)n1`, with greater than 100 µM.
Same read-out and setting: then `CC(O[Si](c1ccccc1)(c1ccccc1)C(C)(C)C)[C@H](NC(=O)OC(C)(C)C)C(=O)O[Si](c1ccccc1)(c1ccccc1)C(C)(C)C` (stereo partly drawn), with 31.1 µM; and `Cc1nc2c(sc(=S)n2-c2ccccc2)c2nc3ncccc3n12`, with greater than 100 µM.
The same measure, in the same setting: the result for `Cc1ccc(-c2c(C#N)c(-c3ccccc3)n(NS(=O)(=O)c3ccccc3)c(=O)c2C#N)cc1` reads greater than 100 µM; that for `COc1ccc(C(C#N)NNC(=O)c2ccccc2O)cc1OC` (stereo not drawn), greater than 100 µM.
The compound `O=c1[nH]n2c(=O)cc[nH]c2c1-c1nnns1` yielded a TGI greater than 100 µM.
Same read-out and setting: the result for `N.N.N.O=[N+]([O-])[O-].O=[N+]([O-])[O-].O=[N+]([O-])[O-].O=[N+]([O-])[O-].[Co+3]` reads greater than 100 µM.

The test system of another assay is T-47D breast. Nature of the assay: DTP human tumour cell line panel, 48 h.
Regarding `NC(C(F)(F)F)(C(F)(F)F)P(=O)(Cc1ccccc1)Cc1ccccc1`, the TGI was greater than 100 µM.
On the same count and under the same terms, the result for `C=C1CC(COc2cc(=O)oc3ccccc23)(c2ccccc2)OC1=O` (stereo not drawn) reads 5.27 µM; that for `Cc1cc(N(CCC#N)CCC#N)ccc1/C=N/NC(=O)c1cc(Cl)ccc1O`, greater than 100 µM; that for `CC(C)(C)c1ccc2c(c1)CNCCNCc1cc(C(C)(C)C)ccc1OCC1(CO2)COc2ccc(C(C)(C)C)cc2CNCCNCc2cc(C(C)(C)C)ccc2OC1`, 3.73 µM.
On the same count and under the same terms, the result for `Nc1cc(CO)cc(Nc2nc3ccc(Cl)cc3c3[nH]c4ccccc4c23)c1` reads 20.8 µM; that for `NC(=O)N/N=C(\Cc1nc2ccc(Cl)cc2[nH]c1=O)C(=O)Nc1ccc(Cl)cc1Cl`, greater than 100 µM.
On the same count and under the same terms, the result for `OCCCCCNc1c2ccccc2nc2ccccc12` reads 8.38 µM; that for `OCC1CCCCCCCCCCC12SCCCS2` (stereo not drawn), greater than 100 µM; that for `CC(C)=CCOC(=O)C(C)=[N+]=[N-]`, greater than 100 µM.
For the compound `CC(O[Si](c1ccccc1)(c1ccccc1)C(C)(C)C)[C@H](NC(=O)OC(C)(C)C)C(=O)O[Si](c1ccccc1)(c1ccccc1)C(C)(C)C` (stereo partly drawn), the total growth inhibition concentration (TGI) came to 25.7 µM.
On the same count and under the same terms, then `Cc1nc2c(sc(=S)n2-c2ccccc2)c2nc3ncccc3n12`, with greater than 100 µM.

The next assay concerns SN12C renal. Nature of the assay: DTP human tumour cell line panel, 48 h.
With `NC(C(F)(F)F)(C(F)(F)F)P(=O)(Cc1ccccc1)Cc1ccccc1`, the TGI is greater than 100 µM.
As to `S=C(N/N=C\C=N/NC(=S)N1CCCCC1)N1CCCCC1`, the TGI is greater than 100 µM.
On to `C=C1CC(COc2cc(=O)oc3ccccc23)(c2ccccc2)OC1=O` (stereo not drawn), for which the TGI was found to be 6.92 µM.
`Cc1cc(N(CCC#N)CCC#N)ccc1/C=N/NC(=O)c1cc(Cl)ccc1O`: the TGI was greater than 100 µM.
Same read-out and setting: the result for `Nc1cc(CO)cc(Nc2nc3ccc(Cl)cc3c3[nH]c4ccccc4c23)c1` reads 12.9 µM.
The same measure, in the same setting: the result for `CCOC(=O)C1Cc2[nH]c3ccccc3c2C(C)C1C` (stereo not drawn) reads 32.8 µM; that for `NC(=O)N/N=C(\Cc1nc2ccc(Cl)cc2[nH]c1=O)C(=O)Nc1ccc(Cl)cc1Cl`, greater than 100 µM; that for `OCCCCCNc1c2ccccc2nc2ccccc12`, 9.34 µM.
On the same count and under the same terms, the result for `CCOP(=O)(OCC)/C(C#N)=C/c1cnc(-c2ccccc2)[nH]1` reads greater than 100 µM; that for `CC(=O)OCC1OC(OC(C)(C)CC/C=C(\C)[C@@H]2C/C=C(\C)CC/C=C(\C)CC2)C(O)C(O)C1OC(C)=O` (stereo partly drawn), > 94.1 µM and 41.2 µM.
In turn, `O=C(/C=C/c1ccc(O)c([N+](=O)[O-])c1)CC(=O)/C=C/c1ccc(O)c([N+](=O)[O-])c1` came in with a TGI greater than 100 µM.
On the same count and under the same terms, then `CC(C)=CCOC(=O)C(C)=[N+]=[N-]`, with greater than 100 µM; and `Cn1cc2ccccc2c1-c1nc(N)nc(F)n1`, with greater than 100 µM.
Still for that read-out and setting: then `CC1=C(O)C(=O)[C@@H]2O[C@@H]2C1=O`, with 52.4 µM.
The same measure, in the same setting: then `Cc1nc2c(sc(=S)n2-c2ccccc2)c2nc3ncccc3n12`, with greater than 100 µM; and `Cc1ccc(-c2c(C#N)c(-c3ccccc3)n(NS(=O)(=O)c3ccccc3)c(=O)c2C#N)cc1`, with greater than 100 µM; and `COc1ccc(C(C#N)NNC(=O)c2ccccc2O)cc1OC` (stereo not drawn), with greater than 100 µM.
As to `O=c1[nH]n2c(=O)cc[nH]c2c1-c1nnns1`, the TGI was greater than 100 µM.
`N.N.N.O=[N+]([O-])[O-].O=[N+]([O-])[O-].O=[N+]([O-])[O-].O=[N+]([O-])[O-].[Co+3]` showed a TGI greater than 100 µM.

The subject of the next assay is RXF 393 renal. Nature of the assay: DTP human tumour cell line panel, 48 h.
For `NC(C(F)(F)F)(C(F)(F)F)P(=O)(Cc1ccccc1)Cc1ccccc1`, the TGI was greater than 100 µM.
The compound `S=C(N/N=C\C=N/NC(=S)N1CCCCC1)N1CCCCC1` had a TGI of 6.06 µM.
`Cc1cc(N(CCC#N)CCC#N)ccc1/C=N/NC(=O)c1cc(Cl)ccc1O` returned a TGI greater than 100 µM.
The same measure, in the same setting: the result for `CCN1CC2=C(NC(=S)NC2c2ccc(Cl)cc2)/C(=C/c2ccc(Cl)cc2)C1` (stereo not drawn) reads greater than 100 µM.

These data come from PubChem BioAssay (NCI).
